According to ChEMBL document CHEMBL1687795, “Mathematical modeling to characterize the inoculum effect” (2010):
In brackets after ≈: the same amount, converted by molar mass. Activity calls are given as the source filed them. No cut-off for these calls is given here.

Key:
[1] = test system: Escherichia coli; experiment: Antimicrobial activity against Escherichia coli ATCC 25922 by broth macrodilution method; assay type: functional
[2] = test system: Escherichia coli; experiment: Antimicrobial activity against Escherichia coli ATCC 25922 by broth macrodilution method in presence of beta-lactamase inhibitor Tazobactam; assay type: functional, organism-based
[3] = test system: Escherichia coli; experiment: Bactericidal activity against Escherichia coli ATCC 25922 using 10^5 CFU/ml inoculum assessed as log reduction in bacterial count at 4 times MIC after 24 hrs by time-kill study; assay type: functional
[4] = test system: Escherichia coli; experiment: Bactericidal activity against Escherichia coli ATCC 25922 using 10^8 CFU/ml inoculum assessed as log reduction in bacterial count at 256 times MIC after 24 hrs by time-kill study; assay type: functional

CCN1CCN(C(=O)N[C@@H](C(=O)N[C@@H]2C(=O)N3[C@@H]2SC(C)(C)[C@@H]3C(=O)O)c2ccccc2)C(=O)C1=O [PIPERACILLIN]
MBC [1]: 2 µg/mL (≈ 3.86 µM)
MIC [1]: 2 µg/mL (≈ 3.86 µM)
Activity [2]: Active
FC [3]: >2
FC [4]: >2
